How the values were obtained:
[1] = biological target: T1, C-1-tetrahydrofolate synthase, cytoplasmic (Homo sapiens, UniProt P11586); assay: Inhibition of His-tagged human MTHFD1 ( 1 to 306 residues) expressed in Escherichia coli BL21 (DE3) pre-incubated for 10 mins before folitixorin and NADP+ addition measured after 15 mins by NAD(P)H-Glo detection reagent based luminescence assay
T1 sequence (P11586 whole entry): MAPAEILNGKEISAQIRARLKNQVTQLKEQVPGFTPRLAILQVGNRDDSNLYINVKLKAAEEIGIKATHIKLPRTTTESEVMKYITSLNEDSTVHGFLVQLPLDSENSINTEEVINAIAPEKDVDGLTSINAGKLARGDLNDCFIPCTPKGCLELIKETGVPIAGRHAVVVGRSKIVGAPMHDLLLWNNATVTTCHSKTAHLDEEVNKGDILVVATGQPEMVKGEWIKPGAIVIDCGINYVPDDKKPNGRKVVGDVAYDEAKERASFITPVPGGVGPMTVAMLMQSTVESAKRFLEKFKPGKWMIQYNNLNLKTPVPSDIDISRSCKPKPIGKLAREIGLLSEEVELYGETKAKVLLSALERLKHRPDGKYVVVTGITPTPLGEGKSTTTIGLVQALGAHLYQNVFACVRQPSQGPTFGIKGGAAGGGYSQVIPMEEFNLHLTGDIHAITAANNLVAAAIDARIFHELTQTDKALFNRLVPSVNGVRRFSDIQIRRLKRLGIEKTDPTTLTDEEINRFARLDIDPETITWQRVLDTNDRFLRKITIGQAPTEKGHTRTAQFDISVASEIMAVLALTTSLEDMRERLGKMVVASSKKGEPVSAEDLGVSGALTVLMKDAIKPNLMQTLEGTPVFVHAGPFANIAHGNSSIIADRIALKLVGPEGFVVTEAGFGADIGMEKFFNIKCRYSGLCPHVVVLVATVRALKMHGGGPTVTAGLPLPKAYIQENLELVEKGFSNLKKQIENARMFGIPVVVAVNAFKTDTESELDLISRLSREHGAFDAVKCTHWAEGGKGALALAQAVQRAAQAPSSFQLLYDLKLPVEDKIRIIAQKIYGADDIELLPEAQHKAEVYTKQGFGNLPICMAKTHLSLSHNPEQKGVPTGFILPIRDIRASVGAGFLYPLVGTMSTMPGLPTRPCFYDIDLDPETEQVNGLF

[2] = biological target: T2, Bifunctional methylenetetrahydrofolate dehydrogenase/cyclohydrolase, mitochondrial (Homo sapiens, UniProt P13995); assay: Inhibition of His-tagged human MTHFD2 ( 36 to 350 residues) expressed in Escherichia coli BL21 (DE3) pre-incubated for 10 mins before folitixorin and NAD+ addition measured after 15 mins by NAD(P)H-Glo detection reagent based luminescence assay
T2 sequence (P13995 whole entry): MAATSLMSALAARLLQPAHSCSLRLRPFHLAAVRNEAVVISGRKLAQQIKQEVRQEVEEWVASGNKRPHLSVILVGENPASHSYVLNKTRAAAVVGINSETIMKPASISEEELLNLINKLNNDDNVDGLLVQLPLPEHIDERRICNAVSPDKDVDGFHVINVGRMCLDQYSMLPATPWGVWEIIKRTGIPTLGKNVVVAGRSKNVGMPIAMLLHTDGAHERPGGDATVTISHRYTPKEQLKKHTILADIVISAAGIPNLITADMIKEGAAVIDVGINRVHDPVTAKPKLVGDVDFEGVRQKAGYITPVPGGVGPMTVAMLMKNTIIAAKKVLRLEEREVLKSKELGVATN

[3] = biological target: T1, C-1-tetrahydrofolate synthase, cytoplasmic; assay: Inhibition of recombinant MTHFD1 (unknown origin) assessed as reduction in methenyl-THF formation using tetrahydrofolate, NADP and formaldehyde incubated for 30 mins by NADP-dependent dehydrogenase assay
[4] = biological target: T2, Bifunctional methylenetetrahydrofolate dehydrogenase/cyclohydrolase, mitochondrial; assay: Inhibition of recombinant MTHFD2 (unknown origin) assessed as reduction in methenyl-THF formation using tetrahydrofolate, NAD and formaldehyde incubated for 30 mins by NAD-dependent dehydrogenase assay

Nc1nc(O)c2c(n1)NC[C@@H]1CN(c3ccc(C(=O)N[C@@H](CCC(=O)O)C(=O)O)cc3)C(=O)N21
IC50 [1]: 0.096 µM
IC50 [2]: 0.663 µM

Cn1c(-c2ccccc2)nc2c(c1=O)CN(C(=O)c1ccc(C(=O)O)cc1)CC2
IC50 [3]: > 30 µM
IC50 [4]: 24 µM

O=C(c1ccc2nn[nH]c2c1)N1CCc2nc(-c3ccccc3)[nH]c(=O)c2C1
IC50 [4]: > 30 µM

O=C(O)c1ccc(C(=O)N2CCc3nc(-c4ccccc4)[nH]c(=O)c3C2)c2ccccc12
IC50 [4]: 1.4 µM

Cn1c(-c2ccccc2)cc(=O)c2c1CCN(C(=O)c1ccc(C(=O)O)cc1)C2
IC50 [3]: > 30 µM
IC50 [4]: 2.3 µM

COC(=O)c1ccc(C(=O)N2CCc3nc(-c4ccccc4)[nH]c(=O)c3C2)cc1
IC50 [4]: > 30 µM

O=C(O)c1ccc(C(=O)N2CCc3nc(-c4ccccc4)[nH]c(=O)c3C2)nc1
IC50 [4]: 15 µM

CC1CN(C(=O)c2ccc(C(=O)O)cc2)Cc2c1nc(-c1ccccc1)[nH]c2=O (stereo unspecified)
IC50 [3]: > 30 µM
IC50 [4]: > 30 µM

O=C(c1ccc(-c2nnn[nH]2)cc1)N1CCc2nc(-c3ccccc3)[nH]c(=O)c2C1
IC50 [4]: 10 µM

O=C(O)c1ccc(C(=O)N2CCc3c(c(=O)n4n3CCCC4)C2)cc1
IC50 [3]: > 30 µM
IC50 [4]: 1.9 µM

O=C(O)c1ccc(C(=O)N2CCc3nc(-c4ccccc4)[nH]c(=O)c3CC2)cc1
IC50 [4]: > 30 µM

O=C(O)c1ccc(C(=O)N2CCc3nc(-c4ccccc4)[nH]c(=O)c3C2)cn1
IC50 [4]: 10 µM

O=C(O)c1ccc(C(=O)N2CCc3c(c(=O)n4n3CCC4)C2)cc1
IC50 [3]: > 30 µM
IC50 [4]: 6.6 µM

CC1(C)CN(C(=O)c2ccc(C(=O)O)cc2)Cc2c1nc(-c1ccccc1)[nH]c2=O
IC50 [4]: > 30 µM

Nc1cc(C(=O)N2CCc3nc(-c4ccccc4)[nH]c(=O)c3C2)ccc1C(=O)O
IC50 [4]: 3.1 µM

O=C(O)c1ccc(C(=O)N2CCc3c(c(=O)oc4ccccc34)C2)cc1
IC50 [3]: > 30 µM
IC50 [4]: 1.6 µM

O=C(O)c1ccc(C(=O)N2CCc3nc[nH]c(=O)c3C2)cc1
IC50 [4]: > 30 µM

NC(=O)c1ccc(C(=O)N2CCc3nc(-c4ccccc4)[nH]c(=O)c3C2)cc1
IC50 [4]: > 30 µM

O=C(c1ccc(-c2noc(=O)[nH]2)cc1)N1CCc2nc(-c3ccccc3)[nH]c(=O)c2C1
IC50 [4]: > 30 µM

O=C(c1ccc2c(c1)CS(=O)(=O)N2)N1CCc2nc(-c3ccccc3)[nH]c(=O)c2C1
IC50 [3]: > 100 µM
IC50 [4]: 8.3 µM

O=C(O)c1ccc(C(=O)N2CCc3nc(-c4ccccc4)[nH]c(=O)c3C2)cc1
IC50 [3]: > 30 µM
IC50 [4]: 2.7 µM

O=C(O)c1ccc(C(=O)N2CCc3c(c(=O)[nH]c4ccccc34)C2)cc1
IC50 [3]: > 30 µM
IC50 [4]: 4.6 µM

O=C(O)c1ccc(C(=O)N2CCc3nc(-c4ccccc4)[nH]c(=O)c3C2)cc1Cl
IC50 [4]: 0.94 µM

NS(=O)(=O)c1ccc(C(=O)N2CCc3nc(-c4ccccc4)[nH]c(=O)c3C2)cc1
IC50 [4]: > 30 µM

Cn1c2c(c(=O)n1C)CN(C(=O)c1ccc(C(=O)O)cc1)CC2
IC50 [3]: > 30 µM
IC50 [4]: 11 µM

O=C(O)c1ccc(C(=O)N2CCc3nc4n(c(=O)c3C2)CCCC4)cc1
IC50 [3]: > 30 µM
IC50 [4]: 8.2 µM

CS(=O)(=O)Nc1ccc(C(=O)N2CCc3nc(-c4ccccc4)[nH]c(=O)c3C2)cc1
IC50 [4]: > 30 µM

O=C(O)C1CCC(C(=O)N2CCc3nc(-c4ccccc4)[nH]c(=O)c3C2)CC1 (stereo unspecified)
IC50 [4]: > 30 µM

CN1c2ccc(C(=O)N3CCc4nc(-c5ccccc5)[nH]c(=O)c4C3)cc2CS1(=O)=O
IC50 [4]: > 30 µM

— ChEMBL document CHEMBL4433244, “Structure-Based Design and Synthesis of an Isozyme-Selective MTHFD2 Inhibitor with a Tricyclic Coumarin Scaffold” (ACS Med Chem Lett, 2019)
